Tested on: 922993-354-T-J3-PDC complex spheroids, viability, % test/control
Assay: Anticancer human tumor 922993-354-T-J3-PDC patient-derived endometrial carcinoma cell line growth inhibition [CLK]
Settings: for IC50: curve of first compound; for viability, T/C: stronger effect = lower value
Summary of the method: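 Multi-cell-type spheroids combined patient-derived tumor cells with HUVEC endothelial cells and human mesenchymal stem cells. Paired agents were dosed in half-log steps down from about clinical Cmax, or from 10 microM where Cmax was unknown.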

[1] = second compound 0.0316 µM, first compound 0.0316 µM
[2] = second compound 0.0316 µM, first compound 0.1 µM
[3] = second compound 0.0316 µM, first compound 0.316 µM
[4] = second compound 0.0316 µM, first compound 1 µM
[5] = second compound 0.0316 µM, first compound 3.16 µM
[6] = second compound 0.0316 µM, first compound 10 µM
[7] = second compound 0.1 µM, first compound 0.0316 µM
[8] = second compound 0.1 µM, first compound 0.1 µM
[9] = second compound 0.1 µM, first compound 0.316 µM
[10] = second compound 0.1 µM, first compound 1 µM
[11] = second compound 0.1 µM, first compound 3.16 µM
[12] = second compound 0.1 µM, first compound 10 µM
[13] = second compound 0.316 µM, first compound 0.0316 µM
[14] = second compound 0.316 µM, first compound 0.1 µM
[15] = second compound 0.316 µM, first compound 0.316 µM
[16] = second compound 0.316 µM, first compound 1 µM
[17] = second compound 0.316 µM, first compound 3.16 µM
[18] = second compound 0.316 µM, first compound 10 µM
[19] = second compound 1 µM, first compound 0.0316 µM
[20] = second compound 1 µM, first compound 0.1 µM
[21] = second compound 1 µM, first compound 0.316 µM
[22] = second compound 1 µM, first compound 1 µM
[23] = second compound 1 µM, first compound 3.16 µM
[24] = second compound 1 µM, first compound 10 µM
[25] = second compound 3.16 µM, first compound 0.0316 µM
[26] = second compound 3.16 µM, first compound 0.1 µM
[27] = second compound 3.16 µM, first compound 0.316 µM
[28] = second compound 3.16 µM, first compound 1 µM
[29] = second compound 3.16 µM, first compound 3.16 µM
[30] = second compound 3.16 µM, first compound 10 µM
[31] = second compound 10 µM, first compound 0.0316 µM
[32] = second compound 10 µM, first compound 0.1 µM
[33] = second compound 10 µM, first compound 0.316 µM
[34] = second compound 10 µM, first compound 1 µM
[35] = second compound 10 µM, first compound 3.16 µM
[36] = second compound 10 µM, first compound 10 µM
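Note: spheroids exposed to the agents for 7 days before readout.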

Which IC50 (second compound 0.0316 µM) does the source give for `C#Cc1c(F)ccc2cc(O)cc(-c3ncc4c(N5CC6CCC(C5)N6)nc(OCC56CCCN5CC(F)C6)nc4c3F)c12` (centres undefined) + CNC(=O)c1ccc(Nc2nc(OC3CCCC3)c3c(-c4ccc5nc(C)oc5c4)c[nH]c3n2)c(OC)c1 here?
The IC50 was greater than 10 µM.

What about the IC50 (second compound 0.1 µM) of the same compound?
Its IC50 is greater than 10 µM.

And the IC50 (second compound 0.316 µM)?
The IC50 was greater than 10 µM.

What about the IC50 (second compound 1 µM) of the same compound?
Its IC50 is less than 0.0316 µM.

What about the IC50 (second compound 3.16 µM) of the same compound?
Its IC50 is less than 0.0316 µM.

And the IC50 (second compound 10 µM)?
Its IC50 is less than 0.0316 µM.

And the viability, T/C [1]?
The viability, T/C was 115%.

And the viability, T/C [2]?
The viability, T/C was 98.5%.

And the viability, T/C [3]?
The viability, T/C was 103%.

What about the viability, T/C [4] of the same compound?
Its viability, T/C is 101%.

What about the viability, T/C [5] of the same compound?
The viability, T/C was 115%.

What about the viability, T/C [6] of the same compound?
Its viability, T/C is 94.1%.

And the viability, T/C [7]?
The viability, T/C was 94.9%.

And the viability, T/C [8]?
Its viability, T/C is 95.2%.

And the viability, T/C [9]?
The viability, T/C was 116%.

What about the viability, T/C [10] of the same compound?
Its viability, T/C is 107%.

And the viability, T/C [11]?
The viability, T/C was 109%.

What about the viability, T/C [12] of the same compound?
The viability, T/C was 97.5%.

What about the viability, T/C [13] of the same compound?
The viability, T/C was 61.4%.

And the viability, T/C [14]?
Its viability, T/C is 64.5%.

And the viability, T/C [15]?
Its viability, T/C is 63%.

And the viability, T/C [16]?
Its viability, T/C is 61.8%.

What about the viability, T/C [17] of the same compound?
The viability, T/C was 57.1%.

And the viability, T/C [18]?
The viability, T/C was 45.6%.

And the viability, T/C [19]?
The viability, T/C was 39.5%.

What about the viability, T/C [20] of the same compound?
The viability, T/C was 40.6%.

What about the viability, T/C [21] of the same compound?
The viability, T/C was 35.5%.

What about the viability, T/C [22] of the same compound?
The viability, T/C was 37%.

What about the viability, T/C [23] of the same compound?
The viability, T/C was 40.8%.

What about the viability, T/C [24] of the same compound?
Its viability, T/C is 35.8%.

What about the viability, T/C [25] of the same compound?
Its viability, T/C is 29.7%.

What about the viability, T/C [26] of the same compound?
The viability, T/C was 29.4%.

What about the viability, T/C [27] of the same compound?
The viability, T/C was 29.8%.

And the viability, T/C [28]?
Its viability, T/C is 30.4%.

And the viability, T/C [29]?
The viability, T/C was 34.3%.

And the viability, T/C [30]?
The viability, T/C was 36.2%.

What about the viability, T/C [31] of the same compound?
Its viability, T/C is 30.9%.

And the viability, T/C [32]?
Its viability, T/C is 29.4%.

And the viability, T/C [33]?
The viability, T/C was 30.5%.

What about the viability, T/C [34] of the same compound?
Its viability, T/C is 33.2%.

What about the viability, T/C [35] of the same compound?
The viability, T/C was 33.1%.

And the viability, T/C [36]?
Its viability, T/C is 31.5%.

For `CC(CO)NC(=O)c1cc(-c2ccc(Cl)cc2)nn(-c2cnn(C)c2)c1=O` (centres undefined) + CNC(=O)c1ccc(Nc2nc(OC3CCCC3)c3c(-c4ccc5nc(C)oc5c4)c[nH]c3n2)c(OC)c1, which IC50 (second compound 0.0316 µM) is on record?
The IC50 was greater than 10 µM.

What about the IC50 (second compound 0.1 µM) of the same compound?
The IC50 was greater than 10 µM.

What about the IC50 (second compound 0.316 µM) of the same compound?
Its IC50 is greater than 10 µM.

What about the IC50 (second compound 1 µM) of the same compound?
Its IC50 is less than 0.0316 µM.

And the IC50 (second compound 3.16 µM)?
Its IC50 is less than 0.0316 µM.

And the IC50 (second compound 10 µM)?
The IC50 was less than 0.0316 µM.

What about the viability, T/C [1] of the same compound?
The viability, T/C was 108%.

What about the viability, T/C [2] of the same compound?
Its viability, T/C is 100%.

What about the viability, T/C [3] of the same compound?
Its viability, T/C is 101%.

What about the viability, T/C [4] of the same compound?
The viability, T/C was 101%.

What about the viability, T/C [5] of the same compound?
Its viability, T/C is 102%.

What about the viability, T/C [6] of the same compound?
The viability, T/C was 98.6%.

What about the viability, T/C [7] of the same compound?
Its viability, T/C is 113%.

What about the viability, T/C [8] of the same compound?
Its viability, T/C is 102%.

And the viability, T/C [9]?
The viability, T/C was 91.3%.

What about the viability, T/C [10] of the same compound?
The viability, T/C was 103%.

What about the viability, T/C [11] of the same compound?
Its viability, T/C is 118%.

And the viability, T/C [12]?
The viability, T/C was 75.4%.

What about the viability, T/C [13] of the same compound?
Its viability, T/C is 59%.

And the viability, T/C [14]?
The viability, T/C was 57.4%.

What about the viability, T/C [15] of the same compound?
The viability, T/C was 56.9%.

And the viability, T/C [16]?
The viability, T/C was 48%.

What about the viability, T/C [17] of the same compound?
Its viability, T/C is 59.3%.

And the viability, T/C [18]?
Its viability, T/C is 57.8%.

And the viability, T/C [19]?
Its viability, T/C is 38.9%.

What about the viability, T/C [20] of the same compound?
The viability, T/C was 34%.

And the viability, T/C [21]?
The viability, T/C was 33.5%.

And the viability, T/C [22]?
Its viability, T/C is 39.9%.

What about the viability, T/C [23] of the same compound?
Its viability, T/C is 47.7%.

What about the viability, T/C [24] of the same compound?
The viability, T/C was 34.3%.

And the viability, T/C [25]?
Its viability, T/C is 30.5%.

What about the viability, T/C [26] of the same compound?
The viability, T/C was 31%.

What about the viability, T/C [27] of the same compound?
Its viability, T/C is 30%.

What about the viability, T/C [28] of the same compound?
Its viability, T/C is 30.9%.

And the viability, T/C [29]?
The viability, T/C was 37.9%.

What about the viability, T/C [30] of the same compound?
The viability, T/C was 36%.

What about the viability, T/C [31] of the same compound?
Its viability, T/C is 34.2%.

And the viability, T/C [32]?
Its viability, T/C is 30.3%.

And the viability, T/C [33]?
The viability, T/C was 29.9%.

What about the viability, T/C [34] of the same compound?
The viability, T/C was 26.9%.

And the viability, T/C [35]?
Its viability, T/C is 32.5%.

What about the viability, T/C [36] of the same compound?
The viability, T/C was 30.7%.
